Experimental data from patent US10092586B2, “Glycolipid containing compositions for use in the treatment of tumors” (Agalimmune Limited (GB/GB), priority 2014, dated 2018).
In brackets after ≈: the same amount, converted by molar mass. Several values for one entry are separate records, joined by “and”; a condition that tells them apart may be missing. Equal values may be shown once. Read-outs that look alike come from different tables or passages of the source.

Tests used:
B16-F10 melanoma cells = test: GT KO mouse melanoma model, distal tumour development; format: in vivo
Protocol: FIG. 7: Dose titration experiments with α-Gal BOEL. Anti-Gal producing GT KO mice were injected with 1×10^6 B16-F10 melanoma cells for primary tumour growth on their right flanks and 1×10^4 B16-F10 cells for secondary/distal tumour injection on the opposite flank. 5 days later, the main tumours were intra-tumourally treated with PBS (open circles), or 0.1 mg α-Gal BOEL (open triangles), or 0.5 mg α-Gal BOEL (closed triangles), or 1 mg of α-Gal BOEL (closed circles). The development of visible distal tumours as model for metastases development was followed for up to 32 days. The percentages of mice without visible distal tumours are plotted in the graphs. Statistical differences between the groups were determined by log-rank test.
FIG. 8: α-Gal BOEL activity in anti-Gal producing mice (i.e mice immunized with pig kidney membranes) or mice lacking anti-Gal (i.e. non-immunized mice). Hyper-immunized or non-immunized GT KO mice were injected with 1×10^6 B16-F10 cells for primary tumour growth on their right flanks and either 1×10^4 B16-F10 cells for secondary/distal tumour injection on the opposite flank. 4 days later, the main tumours were intra-tumourally treated with PBS in hyper-immunized mice (open circles), or 1 mg α-Gal BOEL (closed circles for hyper-immunized mice; open squares for non-immunized mice). The development of visible distal tumours as model for metastases development was followed for up to 28 days. The percentages of mice without visible distal tumours are plotted in the graph. Statistical differences between the groups were determined by log-rank test.
In vivo pharmacodynamics experiments were conducted to assess the effects of α-Gal BOEL in a GT KO mouse melanoma model with B16-F10 melanoma cells. […] As a result, the GT KO mice can be immunized with pig kidney membrane homogenate to produce titers of IgG and IgM anti-Gal antibodies that are similar to those seen naturally in humans. Such an immune response is induced since pig kidney membranes contain a high concentration of α-Gal epitopes on cell membranes and in intercellular matrix.
In the B16-F10 melanoma model, mice were injected with cultured B16-F10 cells on both flanks, on one side they were injected with 1×10^6 melanoma cells to create a primary tumour and with a reduced cell number on the contra-lateral flank (1×10^4 melanoma cells) to create a model of a ‘distant metastasis’ also referred to as secondary tumour. Primary tumours are injected intratumourally with α-Gal BOEL or vehicle control when a predefined tumour diameter is reached. The critical endpoint recorded is growth of the ‘distant’ tumour; this is used to measure the ability of an agent to elicit an effective protective anti-tumour immune response throughout the body. Doses from 0.1-2.5 mg of α-Gal BOEL were tested.

CHO-K1 cells [1] = test: General cellular toxicity (CDC procedure without human serum); format: cell-based; settings: absence of human serum; up to 500 μg/ml; CellTitreGlo
Protocol: (§1) α-Gal BOEL is titrated as follows. One 40 μl aliquot of α-Gal BOEL (2 mg/ml (obtained from Sigma as FSL-Galili(tri)™, Catalogue No. F9432)) is thawed and sonicated for 30 seconds. 40 μl of phosphate buffered saline (PBS) is added to the tube and vortexed for 10 seconds. 25 μl of this mix is added to 55 μl of PBS and mixed well. These dilutions are repeated to give a full titration of α-Gal BOEL in the desired concentration range.
(§2) CHO-K1 cells, which lack α-Gal epitopes, are resuspended in Dulbecco's PBS (DPBS) at 37° C. and centrifuged at 1000 rpm for 5 minutes. The supernatant is aspirated and the cell pellet resuspended to 1×10^7 cells/ml in 450 μl DPBS (37° C.). The cell pellet is washed again to remove all traces of serum.
(§3) An aliquot of the cell suspension (45 μl) is transferred to all tubes of α-Gal BOEL and mixed gently by inversion and incubated for 30 minutes at 37° C. […] The cell suspension (25 μl) is transferred either to an assay plate (standard white 96-well plate for luminescence readout (available from Corning)) to perform the CDC assay (A) or 50 μl transferred to a poly-d-lysine coated plate (available from Sigma) for the in-cell ELISA (B) to measure incorporation into cell membranes. […]
General cellular toxicity was measured by following the CDC assay procedure above but replacing human serum with pre-warmed media. […]

B16-F10 cells = test: Complement deposition assay (flow cytometry), mouse serum; format: cell-based; settings: B16 mouse melanoma cells, 500 μg/ml, 2.5% mouse serum
Protocol: (§4) 1×10^6 B16-F10 and CHO-K1 cells were harvested from growing cultures and incubated with 500 μg/ml αGal BOEL in PBS for 1 hour at 37° C., after which the cells were washed 3 times with PBS. After washing the CHO-K1 cells were incubated with either 2.5% normal (NHS) or heat-inactivated (HI NHS) human serum for 10 minutes at 37° C. The B16-F10 cells were incubated with either 2.5% serum from normal GT−/− mice (NMS) or 2.5% serum from pig kidney homogenate immunised mice (I NMS) for 10 minutes at 37° C. The cells were placed on ice and washed twice with ice-cold cell staining buffer (PBS+0.1% BSA). The cells were incubated with either anti-C3b (C3b, Pierce MAI-70054, diluted 1:1000 in cell staining buffer) or anti-SC5b-9 (MAC, Quidel A239, diluted 1:100 in cell staining buffer) for 30 minutes on ice. The cells were washed twice with ice cold cell staining buffer and incubated with FITC goat anti-mouse IgG (Abcam ab97022, diluted 1:2000 in cell staining buffer) for 30 minutes on ice. After 2 further washes with ice-cold cell staining buffer the cells were resuspended in ice-cold cell staining buffer plus 7-AAD (Biolegend 420403). The cells were analysed using a Beckman Coulter Cytomics FC500 flow cytometer, with data captured in the FL-1 channel. Data on the histograms presented are gated on live cells.

CHO-K1 cells [2] = test: Complement dependent cell cytotoxicity/cell lysis (CDC) assay; format: cell-based
Protocol: The assays below quantify both the amount of α-Gal BOEL inserted into the cell plasma membranes and the functional impact of α-Gal BOEL insertion in stimulating anti-Gal mediated complement-dependent cytotoxicity (CDC). α-Gal BOEL is titrated and incubated with CHO-K1 cells. These cells are either fixed and used in a whole cell ELISA assay, to determine incorporation of α-Gal into membranes, or incubated with anti-Gal antibody and human serum to measure CDC (or general cytotoxicity in the absence of complement from human serum).
as §1
CHO-K1 cells, which lack α-Gal epitopes, are resuspended in Dulbecco's PBS (DPBS) at 37° C. and centrifuged at 1000 rpm for 5 minutes. […]
An aliquot of the cell suspension (45 μl) is transferred to all tubes of α-Gal BOEL and mixed gently by inversion and incubated for 30 minutes at 37° C. […] The cell suspension (25 μl) is transferred either to an assay plate (standard white 96-well plate for luminescence readout (available from Corning)) to perform the CDC assay (A) or 50 μl transferred to a poly-d-lysine coated plate (available from Sigma) for the in-cell ELISA (B) to measure incorporation into cell membranes.
Anti-Gal antibody (from a range of sources, mouse anti-Gal containing plasma in this example) is added (25 μl/well) to the CDC assay plate (A) and then incubated for 30 minutes at 37° C. […] The human serum (containing active complement) is diluted in warm media (to a pre-determined level by titration in the assay) and 50 μl added to each well. […] This reagent luminescence is proportional to the […]. […] Luminescence output is measured using a standard 96-well plate reader (see FIG. 3).

CHO-K1 cells [3] = test: Complement deposition assay (flow cytometry), human serum; format: cell-based; settings: 500 μg/ml, 2.5% human serum
Protocol: as §4

CHO-K1 cells [4] = test: In-cell ELISA to measure incorporation of α-Gal BOEL into cells; format: cell-based; settings: CHO-K1 cells incubated 30 minutes at 37° C.; M86 primary antibody
Protocol: as §1, §2, §3
100 μL/well of TMB Substrate is added the plate incubated at room temperature, protected from light. […] The absorbance at 450 nm is measured within 30 minutes of stopping the reaction (see FIG. 5).

[5] = test system: monoclonal mouse anti-Gal IgM (M86 hybridoma supernatant); test: ELISA to demonstrate binding to anti-Gal antibodies; settings: α-Gal BOEL dried in ELISA wells, serial dilution from 2 mg/ml
Protocol: A 96-well plate is first coated with α-Gal BOEL (obtained from Sigma as FSL-Galili(tri)™, Catalogue No. F9432). 50 μL PBS is added to each well. α-Gal BOEL is resuspended in PBS to a concentration of 2 mg/ml and 50 μL added to a well. Serial dilutions are performed by transferring 50 μL into wells across the plate making sure that each well is thoroughly mixed before transfer. The plate is left overnight to dry.
150 μL of blocking buffer (1×PBS/1% BSA) is added to the dry wells. The plate is covered and incubated at 37° C. for 2 hours. The well contents are discarded and the wells washed with PBS. 50 μL of the primary anti-Gal antibody (monoclonal mouse anti-Gal IgM in this example, M86 hybridoma supernatant) is added to each well. The plate is incubated at room temperature for 2 hours. The plate is washed 3 times with 200 μL washing buffer (1×PBS, 0.05% Tween).
50 μL of secondary goat anti-mouse IgM-HRP solution (Accurate Chemical; Catalogue No. JGM035020) is added to each well. The plate is covered and incubated at room temperature for 1 hour and then is washed 3 times with 200 μL washing buffer. 100 μL of a standard OPD (o-Phenylenediamine dihydrochloride) solution (e.g. Sigma; Catalogue No. P8287) is added to each well, incubated for 5 minutes and then 50 μL of stop solution (1 M sulfuric acid) is added. The well absorbances are immediately read at 492 nm (A492) (see FIG. 2).

**Q.** How did the “mice protected from secondary tumour development” value (B16-F10 melanoma cells; 1 mg intratumoural, anti-Gal producing (immunized) GT KO mice, up to 28 days) turn out when `CCCCCCCC/C=C\CCCCCCCC(=O)OC[C@H](COP(=O)(O)OCCNC(=O)CCCCC(=O)NCCCO[C@@H]1OC(CO)[C@@H](O[C@@H]2OC(CO)[C@H](O)[C@H](O[C@H]3OC(CO)[C@H](O)[C@H](O)C3O)C2O)[C@H](O)C1NC(C)=O)OC(=O)CCCCCCC/C=C\CCCCCCCC` (stereo partly drawn) [α-Gal BOEL, (9Z,9′Z)-(2R)-3-(((2-(6-((3-(((2R,3R,4R,5S,6R)-3-acetamido-5-(((2S,3R,4S,5S,6R)-3,5-dihydroxy-6-(hydroxymethyl)-4-(((2R,3R,4S,5R,6R)-3,4,5-trihydroxy-6-(hydroxymethyl)tetrahydro-2H-pyran-2-yl)oxy)tetrahydro-2H-pyran-2-yl)oxy)-4-hydroxy-6-(hydroxymethyl)tetrahydro-2H-pyran-2-yl)oxy)propyl)amino)-6-oxohexanamido)ethoxy)(hydroxy)phosphoryl)oxy)propane-1,2-diyl bis(octadec-9-enoate)] was run?
**A.** Its value is 80%.

**Q.** What about the “degree of protection versus 0.1-mg and 0.5-mg doses” value (B16-F10 melanoma cells; 1 mg intratumoural, anti-Gal producing GT KO mice, up to 32 days) of the same compound?
**A.** Its value is “higher degree of protection”.

**Q.** What about the “protective activity against secondary tumour development” value (B16-F10 melanoma cells; 1 mg intratumoural, non-immunized GT KO mice (lacking anti-Gal)) of the same compound?
**A.** Its value is “lacked protective activity”.

**Q.** What about the “activity response across doses (protection from distal tumour)” value (B16-F10 melanoma cells; 0.1-mg to 1-mg intratumoural doses in 100 μL vehicle, side-by-side, anti-Gal producing GT KO mice) of the same compound?
**A.** The value was “dose-dependent activity response”.

**Q.** And the “impact on cell viability / overt cytotoxicity” value (CHO-K1 cells [1])?
**A.** The value was “no impact on cell viability”.

**Q.** And the “deposition of complement protein C3b” value (B16-F10 cells)?
**A.** The value was “leads to the deposition”.

**Q.** And the “deposition of complement protein MAC” value (B16-F10 cells)?
**A.** The value was “leads to the deposition”.

**Q.** What about the EC50 (CHO-K1 cells [2]; Cricetulus griseus, CHO-K1, inhibition of CDC, CHO-K1 cells, mouse anti-Gal plasma, human serum, CellTiterGlo, single independent experiment, read-out: EC50) of the same compound?
**A.** The EC50 was 1.36 µg/mL (≈ 0.934 µM).

**Q.** What about the EC50 (CHO-K1 cells [2]; Cricetulus griseus, CHO-K1, inhibition of CDC, over 4 independent experiments, read-out: Geomean / mean EC50) of the same compound?
**A.** Its EC50 is 1.35 µg/mL (≈ 0.927 µM).

**Q.** And the “EC50” value (CHO-K1 cells [2]; inhibition of CDC, CHO-K1 cells, mouse anti-Gal plasma, human serum, CellTiterGlo, single independent experiment)?
**A.** The value was 1.24 µg/mL and 1.38 µg/mL and 1.43 µg/mL.

**Q.** And the “deposition of complement protein C3b” value (CHO-K1 cells [3])?
**A.** The value was “leads to the deposition”.

**Q.** And the “deposition of complement protein MAC” value (CHO-K1 cells [3])?
**A.** Its value is “leads to the deposition”.

**Q.** What about the “incorporation into cells (absorbance at 450 nm)” value (CHO-K1 cells [4]) of the same compound?
**A.** Its value is “can be detected on the surface of CHO-K1 cells”.

**Q.** And the “binding of monoclonal anti-Gal antibody (A492)” value [5]?
**A.** Its value is “binds to α-Gal epitopes on the α-Gal BOEL molecules”.
